The values that follow come from PubChem BioAssay (NCI).

Common to all, as to assay: NCI anticancer screen, dose series, 48 h
The test system of assay [1] is A498 renal.
The subject of assay [2] is CAKI-1 renal.
Assay [3] deals with DU-145 prostate.
For assay [4], the system named is HCT-116 colon.
In assay [5] the test system is HCT-15 colon.
Assay [6] relates to HOP-62 NSCLC.
The subject of assay [7] is HOP-92 NSCLC.
Assay [8] concerns KM12 colon.
For assay [9], the system named is NCI-H522 lung.
Assay [10] deals with SNB-75 CNS.

Structures are written as SMILES. “And” between values parts separate entries of the source, which are not always exact repeats. Identical values can stand only once.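 Interpolation was linear, between the two tested concentrations surrounding the appropriate level; five concentrations were tested over 48 hours in 96-well plates. GI50 marks 50% less growth. TGI is the concentration that stops growth completely.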

Consider `O=C(COc1cc(=O)oc2ccccc12)c1ccccc1`, for which the TGI in assay [1] was above 100 µM; in assay [2] it was 32.5 µM; in [3] it was above 100 µM; in assay [4], 32 µM; in [5], above 100 µM; in [6], above 100 µM. Further, the TGI in assay [7] was 33 µM; in assay [8] it was above 100 µM; in [9], 89.9 µM; in assay [10], above 100 µM.
For `Cc1nc2c(Cl)cc(Cl)cc2c2c1CCO2`, the TGI in assay [1], in assay [2], in assay [3], in assay [4], in assay [5] and in assay [7] was above 100 µM in each case. Moreover, the TGI in assay [8], in assay [9] and in assay [10] was above 100 µM each time.
Take `CCC1c2[nH]c3ccccc3c2C[C@H]2C(=O)NC(C)C(=O)N12` (some centres not stated): the TGI in assay [1], in assay [2], in assay [3], in assay [4], in assay [5] and in [6] was above 100 µM in each case. The TGI in assay [7], in assay [8], in assay [9] and in assay [10] was above 100 µM in each case.
Take `CC(C)(C)OC(=O)NC(CSCc1ccc(C(=O)c2ccccc2)cc1)C(=O)N1CCN(CCCCN2c3ccccc3Sc3cc(N=[N+]=[N-])ccc32)CC1` (configuration not stated): the TGI in assay [1], in assay [2], in assay [3], in [4], in [5] and in [6] was above 100 µM throughout. For the same compound, the TGI in [7], in assay [8], in assay [9] and in [10] was above 100 µM each time.
`ClCCCN1CCN(CCCl)CC1`: the TGI stood at 774 µM in assay [1]; 358 µM in assay [2]; 692 µM in assay [3]; 747 µM in assay [4]; 790 µM in [5]; 168 µM in assay [6]. Also, the results for the TGI in [8], in assay [9] and in assay [10] were above 1000 µM, 356 µM and 681 µM, respectively. Further, the GI50 in [3] was 26.9 µM; in [7], 0.0248 µM; in [9], 54.9 µM; in assay [10] it was 43.2 µM.
`Nc1cc(C2CCCc3c2[nH]c2ccccc32)ccc1O` (configuration not stated): the TGI was above 100 µM in assay [1]; 84.5 µM in assay [2]; above 100 µM in assay [3]; above 100 µM in assay [4]; above 100 µM in assay [5]; above 100 µM in assay [6]. Besides, the TGI in [7], in [8], in assay [9] and in assay [10] was above 100 µM throughout.
Turning to `COc1cc(/C=C/C(=O)CC(=O)/C=C/c2cc(C)c(O)c(OC)c2)cc(C)c1O`, the TGI in assay [1], in [2], in assay [3], in assay [4], in assay [5] and in assay [6] was above 100 µM throughout. The TGI in assay [7], in assay [8], in assay [9] and in assay [10] was above 100 µM throughout.
In the case of `COc1cc(/C=C2\C(=O)N(c3cccc(NC(C)=O)c3)C(c3ccccc3)S2(=O)=O)cc(OC)c1OC` (configuration not stated), the TGI in [1], in assay [2], in [3], in [4], in [5] and in [6] was above 100 µM in each case. The TGI in assay [7], in assay [8], in assay [9] and in [10] was above 100 µM in each case.
For the compound `CC1=NNC(=O)C1C1(C(=O)O)CC(c2c[nH]c3ccccc23)=NC(=S)N1` (configuration not stated), the TGI in assay [1], in assay [2], in assay [3], in assay [4], in assay [5] and in [6] was above 100 µM each time. Further, the TGI is above 100 µM in [7], 36.9 µM in assay [8], 62.6 µM in assay [9] and 62.9 µM in assay [10].
On to `CS(=O)(=O)OCCN(CCOS(C)(=O)=O)c1ccc(C=Nc2ccc(-c3csc(Cc4ccccc4)n3)cc2)c(Cl)c1`, for which the TGI in [1] was 0.321 µM; in assay [2], 13.5 µM; in assay [3], above 86.5 µM; in assay [4], 57.1 µM; in assay [5], above 87.8 µM; in assay [6], above 55.5 µM. In addition, the TGI was 46.5 µM in assay [7], above 63.9 µM in assay [8], above 76 µM in [9] and above 68.1 µM in [10].
`Cc1cn(S(=O)(=O)c2ccccc2)c2c(OCc3ccccc3)cc([N+](=O)[O-])cc12`: the TGI in assay [1], in [2], in assay [3], in [4], in [5] and in [7] was above 100 µM in each case. The TGI in assay [8], in assay [9] and in [10] was above 100 µM throughout.
Regarding `CC(=O)OCC1OC(n2c(C)c(C)cc(C#N)c2=S)C(OC(C)=O)C(OC(C)=O)C1OC(C)=O` (configuration not stated), the TGI in assay [1], in assay [2], in assay [3], in assay [4], in [5] and in assay [6] was above 100 µM throughout. The TGI in assay [7], in [8], in assay [9] and in [10] was above 100 µM in each case. Besides, the GI50 in assay [10] is 17 µM and > 100 µM.
`CC(=O)C1=C(C)N(c2ccccc2)C2(O)C3=C(C(=O)c4ccccc4C3=O)C(O)=CC12Cl` (configuration not stated): the TGI was 30.5 µM in assay [1]; 27.2 µM in [2]; above 100 µM in assay [3]; above 100 µM in [4]; above 100 µM in assay [5]; 80.1 µM in assay [6]. Moreover, the TGI in [7] amounted to 30 µM; in assay [8], 24.6 µM; in assay [9], 5.81 µM; in assay [10], 16.2 µM.
For the compound `COc1cc2c(cc1OC)C(CCN)=NCC2`, the TGI in assay [1] is 62.8 µM; in assay [2] it was 25.2 µM; in assay [3], 32.9 µM; in assay [4], 33.7 µM; in assay [5], 38.9 µM; in assay [6], above 57.4 µM. In addition, the TGI was 15.1 µM in [7], 40.2 µM in assay [8], 10.3 µM in assay [9] and 33 µM in [10].
For the compound `CCN(CC)Cc1cc(N=Nc2c(O)ccc3c(N=Nc4ccc(O)c(CN(CC)CC)c4)c(O)ccc23)ccc1O`, the TGI in assay [1] turned out to be 27.9 µM; in assay [2], 8.25 µM; in assay [3], 9.55 µM; in assay [4], 4.38 µM; in assay [5] it was 4.7 µM; in assay [6], 15.2 µM. Further, the TGI in assay [7] was 22.8 µM; in assay [8] it was above 21.9 µM; in assay [9] it was 10.3 µM; in [10], 27.7 µM.
On to `CCC1(O)C(=O)OCc2c1cc1n(c2=O)Cc2cc3cc4c(cc3nc2-1)OCO4` (configuration not stated), for which the TGI was 0.0816 µM in assay [1]; 0.046 µM in assay [2]; above 100 µM in assay [3]; 0.108 µM in assay [4]; 19 µM in [5]; below 0.0198 µM in assay [6]. Also, the TGI in assay [7] came to 0.6 µM; in assay [8], 5.69 µM; in [9] it was 0.383 µM; in [10] it was 0.0369 µM. In addition, the GI50 in [8] is 0.0978 µM.
In the case of `O=C1c2c(c3c4cc(F)ccc4oc3c3[nH]c4ccccc4c23)C(=O)N1O`, the GI50 in assay [1] was 1.23 µM; in assay [2], 2.09 µM; in [3], 2.15 µM; in assay [5] it was 1.81 µM; in assay [6], 1.33 µM; in assay [7], 1.44 µM. For the same compound, the GI50 in [8] is 3.33 µM; in assay [9] it was 0.53 µM; in [10], 0.0769 µM. Moreover, the TGI was 5.2 µM in assay [1]; 9.35 µM in assay [2]; above 100 µM in assay [3]; above 100 µM in [5]; 17.3 µM in assay [6]; 5.15 µM in assay [7]. For the same compound, the TGI in [8] was above 100 µM; in [9], 5.41 µM; in [10], 4.55 µM.
Turning to `COc1ccc(N2C(=O)C3ON(Cc4ccc(CC(N)=O)cc4)C(c4c5ccccc5c(C)c5ccccc45)C3C2=O)cc1` (configuration not stated), the TGI in [1] is above 100 µM; in assay [2], above 100 µM; in assay [3], 78 µM; in assay [4], 56.9 µM; in [5], 74.9 µM; in assay [6] it was above 100 µM. The TGI in [7] was above 100 µM; in [8], above 100 µM; in assay [9], above 100 µM; in assay [10], 38.1 µM.
In the case of `COC(=O)[C@@]12CSC[C@]1(C(=O)OC)N[C@@H](c1ccccc1O)C2`, the TGI in assay [1], in assay [2], in assay [3], in assay [4], in assay [5] and in assay [6] was above 100 µM throughout. For the same compound, the TGI in assay [7], in [8], in assay [9] and in assay [10] was above 100 µM each time.
As to `CC(O)C(CO)NC(=O)C1CSSCC(NC(=O)C(N)Cc2ccccc2)C(=O)NC(Cc2ccccc2)C(=O)NC(Cc2c[nH]c3ccccc23)C(=O)NC(CCCCN)C(=O)NC(C(C)O)C(=O)N1` (configuration not stated), the TGI in assay [1], in assay [2], in assay [3], in [4], in [5] and in assay [6] was above 100 µM in each case. The TGI in [7], in [8], in assay [9] and in assay [10] was above 100 µM throughout.
Consider `COc1ccc2[nH]c3ccc4cc[n+](CCN5CCC(C6CCN(CC[n+]7ccc8ccc9[nH]c%10ccc(OC)cc%10c9c8c7)CC6)CC5)cc4c3c2c1`, for which the GI50 was above 50 µM in assay [1]; 10.9 µM in [2]; 0.374 µM in assay [4]; 0.266 µM in assay [5]; 34.4 µM in [6]; 27.7 µM in [7]. Besides, the figures for the GI50 in [8] and in assay [9] were 0.631 µM and above 50 µM, respectively. The TGI in [1] was above 53.8 µM; in assay [2], 50 µM and 68.1 µM; in assay [3], 50 µM; in assay [4], 50 µM and > 57.1 µM; in [6], 50 µM and > 100 µM; in [7] it was 28.1 µM and 5.47 µM. Moreover, the TGI in assay [8] was 50 µM and > 92.7 µM; in assay [9], > 50 µM and 5.27 µM; in assay [10], 50 µM.
Take `O=C(Nc1ccccc1C(=O)NCc1ccccc1)/C(=C/c1ccccc1O)NC(=O)c1ccccc1`: the TGI in [1], in [2], in assay [3], in [4], in [5] and in assay [6] was above 100 µM each time. Further, the TGI in assay [7] was above 100 µM; in [8], above 100 µM; in assay [9] it was above 100 µM; in [10] it was 63.3 µM.
Consider `CC1=C(C)C(=O)OC(C(C)(O)C2(O)CC3OC34C3CC(O)C56OC5C=CC(=O)C6(C)C3CCC42C)C1` (configuration not stated), for which the TGI was 7.81 µM in assay [1]; 14.4 µM in assay [2]; 15.8 µM in assay [3]; 3.85 µM in assay [5]; 35.4 µM in assay [6]; 12 µM in assay [7]. For the same compound, the TGI in [8] turned out to be 7.54 µM; in [9] it was 1.97 µM; in [10] it was 20.3 µM.
As to `CCOC(CBr)OC1C(=O)OCC1(C)C` (configuration not stated), the TGI in [1], in assay [2], in assay [3], in assay [4], in assay [5] and in [6] was above 100 µM each time. For the same compound, the TGI in [7], in assay [8], in assay [9] and in assay [10] was above 100 µM in each case.
